In patent US20060142247A1, “Tricyclic heterocycles” (priority 2004, published 2006):

Target: T1, Aurora A (Homo sapiens, UniProt O14965)
T1 construct: C-terminally Histidine4 (His4)-tagged Aurora A full-length protein; His4 (C)
T1 sequence (O14965 1-403): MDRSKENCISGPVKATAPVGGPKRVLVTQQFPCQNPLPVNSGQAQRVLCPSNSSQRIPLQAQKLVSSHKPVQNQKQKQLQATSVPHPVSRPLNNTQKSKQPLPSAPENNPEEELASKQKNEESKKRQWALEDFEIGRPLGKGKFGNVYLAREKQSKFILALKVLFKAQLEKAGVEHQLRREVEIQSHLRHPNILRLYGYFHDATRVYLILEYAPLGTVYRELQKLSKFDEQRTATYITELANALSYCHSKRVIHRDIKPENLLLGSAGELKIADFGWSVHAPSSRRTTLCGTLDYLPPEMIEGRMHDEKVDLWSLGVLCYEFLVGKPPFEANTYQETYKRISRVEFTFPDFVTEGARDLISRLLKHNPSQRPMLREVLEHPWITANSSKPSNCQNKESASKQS
Assay: IC50 determination for inhibitors of Aurora A (96 MTP-ELISA)
Assay type: biochemical
Conditions: His4-tagged full-length Aurora A 250 ng/ml, PKB-GSK2 200 nM, ATP 4 μM, 90 min room temperature, read-out: IC50 Aurora A kinase inhibition
Protocol: Aurora A is a serine threonine kinase involved in spindle assembly and chromosome segregation. The assay is a typically ELISA-type assay where biotinylated substrate (PKB-GSK2) is phosphorylated. Phosphorylation is detected by peroxidase (POD) labelled polyclonal antibody (PAK<M-Ig>S-IgG-POD) and phosphopeptide monoclonal antibody (Mab) (MAK<P-GSK>M-27E5-IgG). The assay is validated for IC50-determination.
Assay plates: 96-well polystyrene plates, streptavidin-coated,
Samples: 10 mM in dimethylsulfoxide (DMSO)
Aurora A-His-4: C-terminally Histidine4 (His4)-tagged Aurora A full-length protein, stock solution 0.7 mg/ml, final conc.: 250 ng/ml
PKB-GSK2: biotinylated peptide derived from human GSK3-alpha sequence (Biotin-SGRARTSSFAEPGG-CONH2), stock solution 600 μM, final conc.: 200 nM
PAK<M-Ig>S-IgG-POD: Anti-mouse IgG, horse radish peroxidase(HRP)-linked Antibody, diluted in 3% BSA/PBS-T (1:10000), (Cell Signaling, Cat. No.: 7076)
MAK<P-GSK>M-27E5-IgG: Phospho-GSK-3-alpha (Ser 21) (27E5) Monoclonal Antibody, stock solution 1.85 mg/ml, diluted in 3% BSA/PBS-T (1:6000), final conc.: 0.31 μg/ml, (Cell Signaling, Cat. No.: 9337B)
ATP: Adenosine-5′-triphosphate 1 mM, diluted in kinase buffer, (Roche Diagnostics GmbH, Cat. No.: 127531-001,), final conc.: 4 μM
TRIS: 2-Amino-2-hydroxymethyl-1,3-propoanediol (“tris-(hydroxymethyl)-aminomethane”) (MERCK, Cat. No.: 108382.2500)
BSA: Bovine Serum Albumin Fraction V, fatty acid free (Roche Diagnostics GmbH, Cat. No. 9100221)
EDTA Titriplex III (di-Sodium-EDTA di-Hydrate), 120 mM, (MERCK, Cat. No.: 1.08418.1000)
ABTS buffer: ABTS (2,2′-azino-bis(3-ethylbenzthiazoline-6-sulfonic acid)) 16.7 mg/ml (Roche Diagnostics GmbH, Cat. No.: 1204530) • ABTS tablets: dissolve one ABTS tablet in 50 ml of working solution (ABTS buffer) (Roche Diagnostics GmbH, Cat. No.: 1112422 ) • Tween 20: Polysorbat 20 (Roche Diagnostics GmbH, Cat. No.: 10006394-001) • DTT: 1,4-Dithiothreitol (Roche Diagnostics GmbH, Cat. No.: 197777) • MgCl2×6H2O MERCK, Cat. No.: 105833.1000 • Kinase buffer: 50 mM TRIS, 10 mM MgCl2, 1 mM DTT, 0.1% Tween 20, pH 7.8 PBS-T (=Wash buffer) (PBS-T)10 g/l PBS(Phosphate buffered saline) with 0.033% Tween 20 • 3% BSA/PBS-T: 3% BSA dissolved in PBS-T Method
This assay is performed in 96-well format for IC50 determination with 5 samples (each with 8 concentrations by twofold testing), 100 μl incubation volume and the following plate layout:
S samples, with ATP, 1% DMSO, final conc.: a=100 μM, b=20 μM, c=4 μM, d=0.8 μM, e=0.16 μM, f=0.032 μM, g=0.0064 μM, h=0.00128 μM Step/Action • (1) Sample preparation: add 24 μl per well samples (descending sequence) diluted in kinase buffer to assay plate (final conc. for DMSO 1%). • 2. Add directly 16 μl Aurora-A-his-4 diluted in kinase buffer to assay plate. • 3. Add directly 40 μl per well PKB-GSK2/ATP mixture to assay plate, (final conc.: Aurora A=250 ng/ml, GSK2=200 nM, ATP=4 μM). Negative control: without ATP. • 4. Incubate assay plate for exactly 90 min at room temperature. • 5. Stop reaction by adding 20 μl EDTA in all wells. • 6. Wash assay plate 3× with 200 μl washing buffer per well. • 7. Add 100 μl MAK<P-GSK>M27E5-IgG (1:10000) and PAK<M-Ig>S-IgG-POD (1:6000) dissolved in 3% BSA/PBS-T to assay plate per well. • 8. Incubate assay plate for 60 min at room temperature. • 9. Wash assay plate 3× with 200 μl washing buffer per well • 10. Add 100 μl ABTS solution to assay plate per well, incubate for approx. 4 min at RT on MTP shaker. • 11. Measure absorption at 405/492 nm. • 12. Calculate % inhibition as: (1−(Esample−ENC)/(EPC−ENC))×100 1)
13. Calculate IC50 using a non-linear curve fit (XLfit software (ID Business Solution Ltd., Guilford, Surrey, UK))

Q: `CC1(C)C(=O)N(CCNC(=O)c2ccccc2)c2cc3[nH]c(-c4n[nH]c5ccccc45)nc3cc21` [Example 53, N-{2-[2-(1H-Indazol-3-yl)-7,7-dimethyl-6-oxo-6,7-dihydro-3H-imidazo[4,5-f]indol-5-yl]-ethyl}-benzamide] was tested. Which IC50 did it give?
A: 1 to 100 nM
